# Measurements published in paper PMC7061854, “Population Pharmacokinetics of Caspofungin and Dosing Optimization in Children With Allogeneic Hematopoietic Stem Cell Transplantation” (Frontiers in Pharmacology, 2020).
# Where two headings read alike, the source gives them in different places.
# What was measured:
# [1] = clinical; format: in vivo, human; settings: for AUC(0-t) / clearance: human, in vivo, iv; for AUC(0-t): median ± standard deviation, read-out: AUC24
# Experimental: A prospective, open-label pharmacokinetic study of caspofungin was performed at Wuhan Children's Hospital, Hubei Province. All designed procedures conformed to the legal requirements and the ethics committee of Wuhan Children's Hospital approved this study.
# (§1) Caspofungin has been approved for use in patients with IFI that requiring prevention treatment, especially for patients undergoing allo-HSCT. In total, 48 patients, received allo-HSCT, fulfilled the enrollment criteria and provided informed in the model building group between July 2017 and March 2019. They received caspofungin as a 1-h intravenous infusion on the basis of body surface area (BSA) with 50 mg/m^2 maintenance dose daily followed by 70 mg/m^2 loading dose on day 1.
# We performed an opportunistic sampling strategy when a steady-state caspofungin concentration had been achieved. Plasma was placed on ice and centrifuged (15,000 rpm for 5 min at +4°C) immediately and then stored at −80°C prior to analysis. Then we recorded the dosing and infusion time as well as sampling time prospectively.
# Caspofungin concentrations were detected by a high-performance liquid chromatography method (Agilent Technologies Inc., 1260 infinity) with ultraviolet (UV) performed on detection by fluorescence. The excitation wavelength was 220 nm, the column temperature was 30 °C, and the pump flow rate was 0.8 ml/min. A solution of 42% acetonitrile was used as the mobile phase. We employed 0.5 ml of serum loaded on solid-phase extraction column (Agela Technologies, Cleanert ODS C18, 200 mg/3 ml) and then eluted with 60% acetonitrile. An Innoval C18 column (Agela Technologies, 10 μm, 4.6 × 250 mm) was used for separation. The calibration curve ranged from 0.6 to 20 mg/L. The inter- and intra-assay coefficients of variation of controls were all less than 5%. The lower limit of quantification (LLOQ) was 0.6 mg/L.
# The PopPK study was performed by applying the non-linear mixed-effect modeling program Phoenix NLME (Version 8.1, Pharsight Corporation) and R program (Version 3.5.1, http://www.r-project.org/).
# We tried to describe the pharmacokinetic process of caspofungin in vivo by using the one- or two-compartment models. The scale model and exponential model were adopted for intra-individual variation and inter-individual variation respectively. A forward and backward selection process was used for covariate analysis. The effects of demographic characteristics including age, body weight (WT), height, BSA, biological parameters including uric acid (UA), serum cystatin C (Cys-C), estimated glomerular filtration rate (eGFR), alanine aminotransferase (ALT), aspartate aminotransferase (AST), and gama-glutamyltranspeptidase (gama-GT) that were investigated as potential covariates on PK parameters. eGFR was calculated according to the modified Schwarta formula ([Schwartz et al., 2009]). Mosteller formula was used to calculate the body surface area (BSA) as follows ([Yang et al., 2019]):
# BSA(m^2)=[height(cm)×weight(kg)/3600]^1/2
# During the forward selection step, the covariate causing the objective function value (OFV) decreased more than 3.84 (P < 0.05, χ2 distribution, df = 1), the covariate was included into the model, thereafter we tested the remaining covariates.
# In this study, goodness-of-fit plots, bootstrap, visual predictive check (VPC), and normalized prediction distribution errors (NPDEs) were adopted to model validation. Bootstrap resampling 1,000 times in the modeling data, and the model was established with the sampling data set. We compared the similarity between bootstrap model parameters and the parameters in final model. VPC simulated 1,000 virtual data with the final model and analyze whether the 95% confidence interval (CI) of the simulated data contains the original data. NPDEs also adopted simulation technology and simulated 1,000 times based on the final model to investigated the distribution of the standard error and perform the normal distribution test.
# [2] = tested on: invasive fungal infections (IFI); assay: Clinical outcome of caspofungin prophylaxis for fungal infections during HSCT; format: in vivo, human
# Experimental: as §1
# In this study, 48 patients received caspofungin (loading dose of 70 mg/m^2 followed by 50 mg/m^2) as prophylaxis for fungal infections for a period of HSCT. The diagnosis of IFI mainly relied on a chest computed tomography (CT), clinical symptoms, blood culture, G test, and GM test. Patients were considered a probable IFI case with a chest CT scan positive for a halo or air crescent sign and large mass flocculent shadow. Routine blood culture, as long as the patients who receive bronchoscopy are all sent to receive bronchoalveolar lavage fluid culture meanwhile high throughput sequencing to find the pathogenic bacteria. […] The culture of bronchoalveolar lavage fluid was negative in three cases for consecutive two times and positive for C. parapsilosis in one case that was identified as C. parapsilosis infection (MIC = 0.5 mg/L). […]
# [3] = tested on: C. parapsilosis; assay: MIC of the isolate cultured from bronchoalveolar lavage fluid; format: cell-based, Candida parapsilosis; settings: isolate of one failed prophylaxis case
# Experimental: In this study, 48 patients received caspofungin (loading dose of 70 mg/m^2 followed by 50 mg/m^2) as prophylaxis for fungal infections for a period of HSCT. The diagnosis of IFI mainly relied on a chest computed tomography (CT), clinical symptoms, blood culture, G test, and GM test. Patients were considered a probable IFI case with a chest CT scan positive for a halo or air crescent sign and large mass flocculent shadow. Routine blood culture, as long as the patients who receive bronchoscopy are all sent to receive bronchoalveolar lavage fluid culture meanwhile high throughput sequencing to find the pathogenic bacteria. […] The culture of bronchoalveolar lavage fluid was negative in three cases for consecutive two times and positive for C. parapsilosis in one case that was identified as C. parapsilosis infection (MIC = 0.5 mg/L). The median ± standard deviation of AUC24 in successful and failed cases group are 394.93 ± 91.14 mg·h/L and 352.08 ± 24.43 mg·h/L (t = 0.929, P = 0.358) at the loading dose, 300.37 ± 88.3 mg·h/L and 247.71 ± 33.67 mg·h/L (t = 1.175, P = 0.246) at the maintenance dose respectively. […] They were much lower than fungicidal target AUC24/MIC ratios ⩾ 1185 for C. parapsilosis. At the maintenance dose AUC24/MIC ratios were lower than the fungistatic target AUC24/MIC ratios ⩾ 559 for C. parapsilosis, which might lead to the failure of preventive treatment.
# [4] = tested on: C. albicans; settings: ref Andes et al., 2010; cited from earlier work
# Description: (§2) The likely success of treatment identified with the probability of target attainment (PTA) by comparing the pharmacodynamic exposure against an minimal inhibitory concentration (MIC) distribution. […] A PK/PD target was defined as the ratio AUC24/MIC for candidiasis. […] Fungistatic ...
# [5] = tested on: C. glabrata; settings: ref Andes et al., 2010; cited from earlier work
# Description: as §2
# [6] = tested on: C. albicans; settings: ref Pfaller et al.; cited from earlier work
# Experimental: Table 4 The area under the concentration-time curve (AUC)/minimal inhibitory concentration (MIC) target probability of target attainment (PTA) values(%) against Candida albicans, Candida glabrata, and Candida parapsilosis for caspofungin in pediatric patients. | column: AUC/MIC target PTA(%) / C. albicans MIC90 = 0.04 mg/L / Fungistatic target || Two simulation procedures were performed to calculate the probability of PK/PD target attainment with different dosing regimens based on the final model. One of the procedure is fixed MIC value of Candida app. to simulated the clinical efficacy of the different drug regimens of caspofungin in infants, children (age 2–11 years), and adolescents (age 12–14 years). According to the literature report, the MIC90 value for C. albicans, C. glabrata, and C. parapsilosis are 0.03, 0.06, and 0.5 mg/L ([Pfaller et al.]). Another simulation procedure is not fixed MIC values. The loading doses of caspofung ...
# [7] = tested on: C. glabrata; settings: ref Pfaller et al.; cited from earlier work
# Experimental: Table 4 The area under the concentration-time curve (AUC)/minimal inhibitory concentration (MIC) target probability of target attainment (PTA) values(%) against Candida albicans, Candida glabrata, and Candida parapsilosis for caspofungin in pediatric patients. | column: AUC/MIC target PTA(%) / C. glabrata MIC90 = 0.06 mg/L / Fungistatic target || Two simulation procedures were performed to calculate the probability of PK/PD target attainment with different dosing regimens based on the final model. One of the procedure is fixed MIC value of Candida app. to simulated the clinical efficacy of the different drug regimens of caspofungin in infants, children (age 2–11 years), and adolescents (age 12–14 years). According to the literature report, the MIC90 value for C. albicans, C. glabrata, and C. parapsilosis are 0.03, 0.06, and 0.5 mg/L ([Pfaller et al.]). Another simulation procedure is not fixed MIC values. The loading doses of caspofung ...
# [8] = tested on: C. parapsilosis; settings: ref Pfaller et al.; cited from earlier work
# Experimental: Table 4 The area under the concentration-time curve (AUC)/minimal inhibitory concentration (MIC) target probability of target attainment (PTA) values(%) against Candida albicans, Candida glabrata, and Candida parapsilosis for caspofungin in pediatric patients. | column: AUC/MIC target PTA(%) / C. parapsilosis MIC90 = 0.5 mg/L / Fungistatic target || Two simulation procedures were performed to calculate the probability of PK/PD target attainment with different dosing regimens based on the final model. One of the procedure is fixed MIC value of Candida app. to simulated the clinical efficacy of the different drug regimens of caspofungin in infants, children (age 2–11 years), and adolescents (age 12–14 years). According to the literature report, the MIC90 value for C. albicans, C. glabrata, and C. parapsilosis are 0.03, 0.06, and 0.5 mg/L ([Pfaller et al.]). Another simulation procedure is not fixed MIC values. The loading doses of caspofung ...
# [9] = median, children 2–12 years old, two-compartment model; ref Yang et al., 2019; cited from earlier work
# Description: Others reported weight and disease state had significant effects on caspofungin PKs in pediatric patients ([Li et al., 2011]). Xin-Mei Yang studied the PK of caspofungin in children (2–12 years old).
# [10] = Bayesian estimates, mean ± SD, all children, SD
# [11] = patients with mild liver dysfunction (40 U/L < AST ⩽ 120 U/L)
# [12] = patients with normal liver function
structure (smiles),measurement,setting,value
"CC[C@H](C)C[C@H](C)CCCCCCCCC(=O)N[C@H]1C[C@@H](O)[C@@H](NCCN)NC(=O)[C@@H]2[C@@H](O)CCN2C(=O)[C@H]([C@H](O)CCN)NC(=O)[C@H]([C@H](O)[C@@H](O)c2ccc(O)cc2)NC(=O)[C@@H]2C[C@@H](O)CN2C(=O)[C@H]([C@@H](C)O)NC1=O [caspofungin, Caspofungin]",θ1 Bootstrap analysis Median Estimate,"[1]; 1,000-run bootstrap",0.91
same,θ2 Bootstrap analysis Median Estimate,"[1]; 1,000-run bootstrap",−0.25
same,BSA-normalized CL,[1]; [10],0.19 ± 0.04 L/m^2/h
same,BSA-normalized Vd,[1]; [10],1.72 ± 0.01 L/m^2
same,BSA-normalized CL,"[1]; adolescents, age 12–14 years, two severe liver dysfunction patients excluded",0.178 ± 0.039 L/m^2/h
same,BSA-normalized CL,"[1]; children, age 2–11 years, two severe liver dysfunction patients excluded",0.187 ± 0.031 L/m^2/h
same,θ1 (exponent for BSA as covariate) Final model Estimate,[1]; final PopPK model,0.89
same,θ2 (exponent for lnAST as covariate for CL) Final model Estimate,[1]; final PopPK model,−0.23
same,AUC(0-t),"[1]; 50 mg/m2, failed cases group, at the maintenance dose (50 mg/m^2), SD",248 ± 33.7 µg·h/mL
same,AUC(0-t),"[1]; 50 mg/m2, successful cases group, at the maintenance dose (50 mg/m^2), SD",300 ± 88.3 µg·h/mL
same,AUC(0-t),"[1]; 70 mg/m2, failed cases group, at the loading dose (70 mg/m^2), SD",352 ± 24.4 µg·h/mL
same,AUC(0-t),"[1]; 70 mg/m2, successful cases group, at the loading dose (70 mg/m^2), SD",395 ± 91.1 µg·h/mL
same,clearance,[1]; [11],1.95 mL/min
same,clearance,[1]; [12],2.67 mL/min
same,BSA-normalized CL,"[1]; infants, two severe liver dysfunction patients excluded",0.190 ± 0.015 L/m^2/h
same,θVd (L) Final model Estimate,"[1]; one-compartment PopPK model, typical value, 48 children with allo-HSCT, Vd = 1.36 × (BSA/0.79)",1.36 L
same,θCL (L·h^−1) Final model Estimate,"[1]; one-compartment PopPK model, typical value, CL = 0.14 × (BSA/0.79)^0.89 × (lnAST/3.38)^−0.23",0.14 L/h
same,estimated BSA-normalized CL,[1]; [11],0.179 ± 0.03 L/m^2/h
same,estimated BSA-normalized CL,[1]; [12],0.188 ± 0.03 L/m^2/h
same,drug-related adverse events,"[2]; 48 caspofungin recipients, standard-dose",we did not find drug-related adverse events
same,patients with prophylaxis (favorable) outcome,"[2]; 48 children with allo-HSCT, loading dose 70 mg/m^2 followed by 50 mg/m^2",92%
same,MIC,[3],0.5 µg/mL
same,Fungicidal target AUC24/MIC ratio,[4],865
same,Fungistatic target AUC24/MIC ratio,[4],748
same,Fungicidal target AUC24/MIC ratio,[5],450
same,Fungistatic target AUC24/MIC ratio,[5],96.2
same,MIC90,[6],0.03 µg/mL
same,MIC90,[7],0.06 µg/mL
same,MIC90,[8],0.5 µg/mL
same,CL,[9],0.21 L/h/m^2
same,central volume distribution,[9],2.23 L/m^2
